Measurements published in the NIST ThermoML archive (doi:10.1021/je0603325).

Test: molar heat capacity at constant pressure; xn = mol fraction of the nth substance listed
Settings: 101 kPa, Liquid, Small sample (50 mg) DSC

BrCCBr [1,2-dibromoethane] + CCCCCCC
molar heat capacity at constant pressure [J/K/mol]
Settings | x1 = 0.1016 | x1 = 0.2016 | x1 = 0.2989 | x1 = 0.3977 | x1 = 0.4996 | x1 = 0.5991 | x1 = 0.6928 | x1 = 0.8022 | x1 = 0.9003 | x1 = 1
293.15 K | 213.58 | 204.39 | 196.15 | 187.73 | 179.31 | 170.59 | 162.47 | 153.18 | 144.9 | 136.87
294.15 K | 213.9 | 204.73 | 196.48 | 188.03 | 179.43 | 170.8 | 162.6 | 153.26 | 144.94 | 136.9
295.15 K | 214.26 | 204.92 | 196.66 | 188.2 | 179.65 | 170.96 | 162.81 | 153.4 | 145.07 | 136.95
296.15 K | 214.59 | 205.3 | 196.95 | 188.51 | 179.89 | 171.13 | 162.9 | 153.53 | 145.16 | 136.99
297.15 K | 214.9 | 205.51 | 197.29 | 188.66 | 180.09 | 171.23 | 163.05 | 153.63 | 145.24 | 137.02
298.15 K | 215.25 | 205.83 | 197.53 | 188.94 | 180.26 | 171.4 | 163.18 | 153.72 | 145.27 | 137.04
299.15 K | 215.55 | 206.18 | 197.72 | 189.11 | 180.39 | 171.55 | 163.24 | 153.84 | 145.33 | 137.09
300.15 K | 215.9 | 206.45 | 198 | 189.43 | 180.66 | 171.77 | 163.47 | 153.91 | 145.4 | 137.11
301.15 K | 216.32 | 206.71 | 198.31 | 189.64 | 180.79 | 171.9 | 163.5 | 153.98 | 145.47 | 137.15
302.15 K | 216.6 | 207.03 | 198.6 | 189.82 | 181.03 | 172.01 | 163.71 | 154.13 | 145.6 | 137.2
303.15 K | 216.95 | 207.33 | 198.77 | 190.01 | 181.17 | 172.23 | 163.89 | 154.24 | 145.65 | 137.25
304.15 K | 217.33 | 207.57 | 199.17 | 190.33 | 181.4 | 172.31 | 163.94 | 154.32 | 145.75 | 137.29
305.15 K | 217.7 | 207.95 | 199.39 | 190.62 | 181.54 | 172.49 | 164.06 | 154.37 | 145.77 | 137.32
306.15 K | 218.07 | 208.28 | 199.58 | 190.75 | 181.72 | 172.71 | 164.29 | 154.55 | 145.83 | 137.39
307.15 K | 218.39 | 208.47 | 199.9 | 191.03 | 181.95 | 172.88 | 164.4 | 154.6 | 145.96 | 137.42
308.15 K | 218.69 | 208.8 | 200.2 | 191.31 | 182.17 | 173 | 164.48 | 154.68 | 146.01 | 137.49
309.15 K | 219.1 | 209.1 | 200.37 | 191.5 | 182.37 | 173.19 | 164.7 | 154.79 | 146.13 | 137.53
310.15 K | 219.41 | 209.5 | 200.65 | 191.66 | 182.48 | 173.29 | 164.8 | 154.9 | 146.2 | 137.6
311.15 K | 219.69 | 209.78 | 200.99 | 191.91 | 182.68 | 173.5 | 164.88 | 155 | 146.21 | 137.65
312.15 K | 220.11 | 210.1 | 201.15 | 192.12 | 182.91 | 173.69 | 165.06 | 155.16 | 146.3 | 137.71
313.15 K | 220.35 | 210.39 | 201.51 | 192.42 | 183.06 | 173.84 | 165.16 | 155.25 | 146.43 | 137.77
